Data taken from patent US20090042790A1, “TRANSMUCOSAL DELIVERY OF PEPTIDE DERIVATIVES” (NASTECH PHARMACEUTICAL COMPANY INC., priority 2005, published 2009).
*1 amine or outer side, *2 acyl side, *3 side chain or, on linkers, in order; H or OH if unused. Where a SMILES comes first, the peptide text is derived from it. Bridges are numbered along the chain shown (N, C = ends). [ ]: non-standard residue; d: D form. The star is where a group is joined. X1 = COc1ccc(C2CCC(N[*:1])(C(=O)[*:2])CC2)cc1; Pentanoyl = CCCCC(=O)*

Assays:
[1] = biological target: T1, melanocortin-1 (MC1 receptor) (Homo sapiens, UniProt Q01726); assay: cAMP assay in HEK293 cells expressing the MC1 receptor; assay type: cell-based; conditions: 1×10^−11 to 1×10^−5 M, FIG. 2, read-out: effective concentration to reach a 50% response level (EC50), cAMP production
T1 construct: expressed in transfected cells; host or cells: HEK293
Description: FIG. 2: The degree of MC4 receptor specificity of the 2 kDa PEGylated MC4-RA and the unmodified MC4-RA was compared. The ability to stimulate cAMP production in cells in vitro was assayed; HEK293 cells expressed the melanocortin-1 (MC1 receptor). A measured increase in cAMP levels indicated a lack of MC4 receptor specificity. The 2 kDa PEGylated and unmodified MC4-RA were incubated in a concentration range of approximately 1×10^−11 to 1×10^−5 M with HEK293 cells that were expressing the MC1 receptor. The maximum quantity of cAMP was normalized to 100% or “% Max Response” and the concentration of 2 kDA PEGylated or unmodified MC4-RA was shown as the log of the Molar concentration. The effective concentration to achieve a 50% response (EC50) is shown.
The degree of MC4 receptor specificity of the 2 kDa PEGylated MC4-RA and the unmodified MC4-RA was compared. […] In this instance, a measured increase in cAMP levels would indicate a lack of MC4 receptor specificity. […] The experiment was performed in triplicate and cAMP levels were measured with the cAMP Tropix assay kit. The maximum quantity of cAMP was normalized to 100% or “% Max Response” and the concentration of 2 kDa PEGylated or unmodified MC4-RA is shown as the log of the Molar concentration.

[2] = test system: male DOI mice (obesity mouse model system); assay: Cumulative food intake in male DOI mice; assay type: in vivo; conditions: high dose group (doses 1.25, 2.5, 5 mg/kg); 16 and 24 hours after dose administration; vs 30% PEG control; FIG. 3
Description: The effect of the low molecular weight PEGylated MC4-RA and unmodified MC4-RA on food intake was evaluated under regular light cycle in male DOI mice (obesity mouse model system). Control mice were administered a 30% PEG formulation. For the unmodified MC4-RA in vivo study, individual subjects categorized into three separate study groups, based on dosage levels, were administered 1.25 mg/kg, 2.5 mg/kg or 5 mg/kg of unmodified MC4-RA. For the 2 kDa PEGylated MC4-RA in vivo study, individual subjects categorized into three separate study groups, again based on dosage levels, were administered 5 mg/kg, 10 mg/kg and 20 mg/kg 2 kDa PEGylated MC4-RA. The effective does is higher for the PEGylated MC4-RA due to the tripled molecular weight resulting from the conjugation of a 2 kDa PEG to the MC4-RA molecule.

[3] = biological target: T2, melanocortin-4 cell receptor (MC4 receptor) (Homo sapiens, UniProt P32245); assay: cAMP assay in HEK293 cells expressing the MC4 receptor; assay type: cell-based; conditions: 1×10^−11 to 1×10^−5 M, FIG. 1, read-out: effective concentration to reach a 50% response level (EC50), cAMP production
T2 construct: expressed in transfected cells; host or cells: HEK293
Description: FIG. 1: The ability of the 2 kDa PEGylated MC4-RA and unmodified MC-4RA to stimulate cAMP production in cells expressing the melanocortin-4 cell receptor (MC4 receptor) was compared. HEK293 cells expressing the MC4 receptor were incubated with either the 2 kDa PEGylated MC4-RA or the unmodified MC4-RA. The concentrations used for either MC4-RA in the cAMP assay ranged from approximately 1×10^−11 to 1×10^−5 M. The maximum quantity of cAMP was normalized to 100% or “% Max Response” and the concentration of 2 kDA PEGylated or unmodified MC4-RA was shown as the log of the Molar concentration. The effective concentration to achieve a 50% response (EC50) is shown.
An ideal property of any therapeutic agent is target specificity as induction, for example, of unwanted cell surface receptors and/or cell signaling pathways may lead to deleterious outcomes in the patient subject. […]
Potency was measured as the ability of the 2 kDa PEGylated MC4-RA or the unmodified MC4-RA to stimulate cAMP production in cells expressing the melanocortin-4 cell receptor (MC4 receptor). […] The experiment was performed in triplicate and cAMP levels were measured with the cAMP Tropix assay kit. The maximum quantity of cAMP was normalized to 100% or “% Max Response” and the concentration of 2 kDa PEGylated or unmodified MC4-RA is shown as the log of the Molar concentration.

[4] = test system: EpiAirway™ epithelial cell monolayer; assay: Transepithelial electrical resistance (TEER) of EpiAirway epithelial cell monolayer; assay type: cell-based; conditions: positive TEER control
Description: The epithelial cells are grown on porous membrane-bottomed cell culture inserts at an air-liquid interface, which results in differentiation of the cells to a highly polarized morphology. The apical surface is ciliated with a microvillous ultrastructure and the epithelium produces mucus (the presence of mucin has been confirmed by immunoblotting). The inserts have a diameter of 0.875 cm, providing a surface area of 0.6 cm^2. The cells are plated onto the inserts at the factory approximately three weeks before shipping. One “kit” consists of 24 units.
These junctions confer a transepithelial resistance of several hundred ohms×cm^2 in excised airway tissues.

T1 sequence (Q01726 whole entry): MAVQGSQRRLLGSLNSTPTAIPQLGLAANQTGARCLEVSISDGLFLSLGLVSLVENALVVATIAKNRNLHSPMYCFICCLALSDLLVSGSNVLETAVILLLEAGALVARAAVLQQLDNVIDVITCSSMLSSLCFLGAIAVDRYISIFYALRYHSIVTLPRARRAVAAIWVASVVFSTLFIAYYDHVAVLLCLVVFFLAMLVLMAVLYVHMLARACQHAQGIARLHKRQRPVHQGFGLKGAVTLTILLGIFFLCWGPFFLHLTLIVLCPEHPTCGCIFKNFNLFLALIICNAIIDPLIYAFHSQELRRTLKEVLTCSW
T2 sequence (P32245 whole entry): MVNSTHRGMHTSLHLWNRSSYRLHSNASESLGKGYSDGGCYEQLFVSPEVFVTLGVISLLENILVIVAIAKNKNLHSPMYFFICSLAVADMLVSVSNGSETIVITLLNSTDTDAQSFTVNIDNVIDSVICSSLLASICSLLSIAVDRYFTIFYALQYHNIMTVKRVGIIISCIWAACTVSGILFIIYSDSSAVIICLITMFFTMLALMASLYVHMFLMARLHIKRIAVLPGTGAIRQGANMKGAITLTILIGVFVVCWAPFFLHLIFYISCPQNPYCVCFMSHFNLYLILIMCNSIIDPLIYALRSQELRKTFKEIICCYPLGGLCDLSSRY

| Molecule | EC50 [1] | cumulative food intake [2] | EC50 [3] | Average TEER Measurement ([4]; Table 3 formulation #11: 9% Triton X-100 only) | Average TEER Measurement ([4]; Table 5 formulation #17: 9% Triton X-100 only) |
| --- | --- | --- | --- | --- | --- |
| CCCCC(=O)N[C@H]1CCC(=O)NCCCC[C@@H](C(N)=O)NC(=O)[C@H](Cc2c[nH]c3ccccc23)NC(=O)[C@H](CCCNC(=N)N)NC(=O)[C@@H](Cc2ccccc2)NC(=O)C2(CCC(c3ccc(OC)cc3)CC2)NC1=O (some centres unmarked) [unmodified MC4-RA] (Pentanoyl-E[X1][dF]RWK-NH2; lactam 1-6) | ~0.8 µM | significant reduction on cumulative food intake | 0.0005 µM |  |  |
| octylphenolpoly(ethyleneglycolether) [Triton X-100 ™] |  |  |  | 1.5 | 1.2 |
